How the values were obtained:
irinotecan-treated mice [1] = conditions: mouse, in vivo
Description: (§1) FIG. 2. (A) Prevalence of positive bacterial aerobic cultures from mesenteric, splenic, and liver homogenates and whole blood. Groups of mice (n=20 mice for each treatment group) were pretreated for 3 days with either saline or h[Gly2]-GLP-2 as shown in FIG. 1A and euthanized 96 hrs after commencing irinotecan treatment (two injections of 280 mg/kg per dose). *=P<0.05, saline versus h[Gly2]-GLP-2 treated mice after irinotecan. […] (B) The leukocyte count in saline- and h[Gly2]-GLP-2 treated control and irinotecan-treated mice. + and *=p<0.05 for saline- and h[Gly2]-GLP-2-treated groups versus irinotecan-treated mice. #=P<0.05, irinotecan-treated mice pretreated with saline versus h[Gly2]-GLP-2.
Microbiology: At various time points following chemotherapy administration, aliquots of whole blood and tissue homogenates obtained using sterile technique were plated on blood agar plates and incubated at 37° C. for 48 hrs.

[2] = system: irinotecan-treated CD1 mice, jejunum and colon crypts; experiment: Crypt survival and cell number per hemi-crypt (histology) after irinotecan; type: in vivo, mouse; conditions: small and large intestine following irinotecan; FIGS. 3A-D
Description: FIG. 3. Mean crypt survival (A and C) and mean cell number per hemi-crypt (B and D) from the midjejunum (A and B) and colon (C and D) of control and irinotecan-treated CD1 mice administered either saline (vehicle) or h[Gly2]-GLP-2 as a 3 day pretreatment regimen. Dotted lines represent line of best fit for data shown between 60 and 96 h. Five mice per treatment group were euthanized for analysis commencing immediately prior to the first of two injections of irinotecan (280 mg/kg per dose) and at 12 hr intervals up to 96 hrs. Crypt survival was measured along the entire bowel circumference, and the mean cell number per hemi-crypt determined in 50 consecutive intact crypts per animal. *=P<0.05, **=P<0.001, saline versus h[Gly2]-GLP-2 treated mice.
Histological Analysis: Four- to six-micrometer histological cross sections from the intestine of each mouse were cut and stained with hematoxylin and eosin and micrometry was performed as described. Boushey, R. P. et al., Am. J. Physiol. 277: E937-E947, 1999. The number of cells per hemi-crypt column and the number of surviving crypts per circumference were measured in both the small and large intestine at 12 h intervals (n=5 mice per time point) following irinotecan administration as previously described. Wright, N. A. et al., Cell Tissue Kinet. 22: 425-50, 1989; Withers, H. R. et al., Int. J. Radiat. […] All slides were scored in a blinded fashion.

irinotecan-treated mice [3] = experiment: Leukocyte count after irinotecan; type: in vivo, mouse; conditions: mice following irinotecan treatment
Description: as §1
Leukocyte Count: Whole blood samples were collected in venipuncture tubes containing EDTA and analyzed using an automated whole blood sorter calibrated for mouse samples. Blood smears were performed on all samples to confirm the automated analysis.

[4] = system: rodents with indomethacin-induced intestinal injury; conditions: Boushey et al. 1999, cited from earlier work
[5] = mice following indomethacin-induced intestinal injury
[6] = rodents with indomethacin-induced intestinal injury

## CC[C@H](C)[C@H](NC(=O)[C@H](Cc1ccccc1)NC(=O)[C@H](CC(=O)O)NC(=O)[C@H](CCCNC(=N)N)NC(=O)[C@H](C)NC(=O)[C@H](C)NC(=O)[C@H](CC(C)C)NC(=O)[C@H](CC(N)=O)NC(=O)[C@H](CC(=O)O)NC(=O)[C@H](CC(C)C)NC(=O)[C@@H](NC(=O)[C@@H](NC(=O)[C@H](CC(N)=O)NC(=O)[C@H](CCSC)NC(=O)[C@H](CCC(=O)O)NC(=O)[C@H](CC(=O)O)NC(=O)[C@H](CO)NC(=O)[C@H](Cc1ccccc1)NC(=O)[C@H](CO)NC(=O)CNC(=O)[C@H](CC(=O)O)NC(=O)CNC(=O)[C@@H](N)Cc1c[nH]cn1)[C@@H](C)O)[C@@H](C)CC)C(=O)N[C@@H](CC(N)=O)C(=O)N[C@@H](Cc1c[nH]c2ccccc12)C(=O)N[C@@H](CC(C)C)C(=O)N[C@H](C(=O)N[C@@H](CCC(N)=O)C(=O)N[C@H](C(=O)N[C@@H](CCCCN)C(=O)N[C@H](C(=O)N[C@H](C(=O)N[C@@H](CC(=O)O)C(=O)O)[C@@H](C)O)[C@@H](C)CC)[C@@H](C)O)[C@@H](C)CC [h[Gly2]-GLP-2]
irinotecan-treated mice [1]
  bacterial colonies in homogenates: No bacterial colonies were detected

## CCc1c2c(nc3ccc(OC(=O)N4CCC(N5CCCCC5)CC4)cc13)-c1cc3c(c(=O)n1C2)COC(=O)[C@]3(O)CC [irinotecan, 7-ethyl-10-[4-(1-piperidino)-1-piperidino] carbonyloxycamptothecin]
[2]
  number of crypts and number of cells within each crypt: significant reduction in both the number of crypts and in the number of cells within each crypt
irinotecan-treated mice [3]
  leukocyte count after irinotecan treatment: significant leukopenia

## GLP-2: 33 amino acid product of the glucagon gene, an intestinotrophic peptide secreted by enteroendocrine cells (HADGSFSDEMNTILDNLAARDFINWLIQTKITD; Glucagon-like peptide 2; UniProt P01275 146-178, looked up)
[4]; [5]
  bacterial infection in the liver and spleen: decreased bacterial infection in the liver and spleen
  circulating bacteremia: markedly reduced circulating bacteremia
[4]; [6]
  epithelial damage: reduces epithelial damage
  survival: improves survival

Reference: US20030040478A1, “Chemotherapy treatment” (priority 2002, published 2003)
